One experiment has as its system HBCx-22 tumor. As to the kind of experiment: Patient-derived xenograft (PDX) study with HBCx-22. Type of experiment: in vivo, Athymic Nude-Foxn1^nu mice. As to conditions: HBCx-22 PDX; for Regressions (%) / TGI (%) D42: Day 42. On the procedure:
Female Athymic Nude-Foxn1^nu mice with an established growing HBCx-22 tumor between 108 and 288 mm^3 were randomized into 4 treatment groups of 10 mice each, according to the groups listed in Table 5A, tumor-bearing mice receive estrogen diluted in drinking water (β-estradiol, 8.5 mg/l), from the date of tumor implant to the end of the study. In Table 5A, the abbreviation “p.o.” refers to oral administration, the abbreviation “QD” refers to administration once a day, and the abbreviation “BID” refers to administration twice a day.
Tumors were measured and mice were weighed twice per week during the experimental period. The tumor volume (mm^3) was estimated using the formula: tumor volume (TV)=a×b2/2, where “a” and “b” were the long and the short diameter of a tumor, respectively. The TVs were used to calculate tumor growth inhibition (TGI, an indicator of antitumor activity) using the formula TGI %: (1−{T/T0/Ct/C0}/1−{C0/Ct})×100 where Tt=median tumor volume of treated at time t, T0=median tumor volume of treated at time 0, Ct=median tumor volume of control at time t and C0=median tumor volume of control at time 0. […] Tumor regression represents tumor volume less than the initial tumor volume on D0.
Female Athymic Nude-Foxn1^nu mice with an established growing HBCx-22 tumor between 108 and 288 mm^3 were randomized into 5 treatment groups of 8 mice each, according to the groups listed in Table 6A, tumor-bearing mice receive estrogen diluted in drinking water (β-estradiol, 8.5 mg/l), from the date of tumor implant to the end of the study. In Table 6A, the abbreviation “p.o.” refers to oral administration, the abbreviation “QD” refers to administration once a day, and the abbreviation “BID” refers to administration twice a day.
Tumors were measured and mice were weighed twice per week during the experimental period. The tumor volume (mm^3) was estimated using the formula: tumor volume (TV)=a×b2/2, where “a” and “b” were the long and the short diameter of a tumor, respectively. The TVs were used to calculate tumor growth inhibition (TGI, an indicator of antitumor activity) using the formula TGI %: (1−{T/T0/Ct/C0}/1−{C0/Ct})×100 where Tt=median tumor volume of treated at time t, T0=median tumor volume of treated at time 0, Ct=median tumor volume of control at time t and C0=median tumor volume of control at time 0. […] Robust and statistically significant tumor growth inhibition was observed starting at a dose of 30 mpk with 4/8 as shown in Table 6B. Tumor regression represents tumor volume less than the initial tumor volume at DO.
A general note: Xenograft models place foreign cells or tissue in a host animal.

Another experiment deals with HBCx-34 tumor. The experiment in a line: Patient-derived xenograft (PDX) study with HBCx-34. As to conditions: HBCx-34 PDX. It counts as in vivo, Athymic Nude-Foxn1^nu mice. On the procedure:
Female Athymic Nude-Foxn1^nu mice with an established growing HBCx-34 tumor between 108 and 288 mm^3 were randomized into 4 treatment groups of 10 mice each, according to the groups listed in Table 7A, tumor-bearing mice receive estrogen diluted in drinking water (β-estradiol, 8.5 mg/l), from the date of tumor implant to the end of the study. In Table 7A, the abbreviation “p.o.” refers to oral administration, the abbreviation “QD” refers to administration once a day, and the abbreviation “BID” refers to administration twice a day.
Tumors were measured and mice were weighed twice per week during the experimental period. The tumor volume (mm^3) was estimated using the formula: tumor volume (TV)=a×b2/2, where “a” and “b” were the long and the short diameter of a tumor, respectively. The TVs were used to calculate tumor growth inhibition (TGI, an indicator of antitumor activity) using the formula TGI %: (1−{T/T0/Ct/C0}/1−{C0/Ct})×100 where Tt=median tumor volume of treated at time t, T0=median tumor volume of treated at time 0, Ct=median tumor volume of control at time t and C0=median tumor volume of control at time 0. […] Tumor regression represents tumor volume less than the initial tumor volume on DO.
Female Athymic Nude-Foxn1^nu mice with an established growing HBCx-34 tumor between 108 and 288 mm^3 were randomized into 2 treatment groups of 8 mice each, according to the groups listed in Table 8A, tumor-bearing mice receive estrogen diluted in drinking water (β-estradiol, 8.5 mg/l), from the date of tumor implant to the end of the study. In Table 8A, the abbreviation “p.o.” refers to oral administration, the abbreviation “QD” refers to administration once a day.
Tumors were measured and mice were weighed twice per week during the experimental period. The tumor volume (mm^3) was estimated using the formula: tumor volume (TV)=a×b2/2, where “a” and “b” were the long and the short diameter of a tumor, respectively. The TVs were used to calculate tumor growth inhibition (TGI, an indicator of antitumor activity) using the formula TGI %: (1−{T/T0/Ct/C0}/1−{C0/Ct})×100 where Tt=median tumor volume of treated at time t, T0=median tumor volume of treated at time 0, Ct=median tumor volume of control at time t and C0=median tumor volume of control at time 0. […] Tumor regression represents tumor volume less than the initial tumor volume at DO.

Where [1] appears, read: 100 mg/kg twice daily (200 mg/kg/day).
The mark [2] stands for this setting: Compound A study, 30 mg/kg QD p.o.
Setting [3] is: Compound A study, 100 mg/kg QD p.o.

Take `CC(C)C(=O)N1CCN(c2cc(S(=O)(=O)NC3(C#N)CC3)cc3c2cnn3-c2nnc(C(F)F)s2)C[C@H]1C` [Compound B]: the “Regressions (%)” value was 10% with HBCx-22 tumor (30 mg/kg QD p.o.); 60% with HBCx-22 tumor (100 mg/kg BID p.o.); 30% with HBCx-22 tumor (100 mg/kg QD p.o.); 10% with HBCx-34 tumor (30 mg/kg QD p.o., Day 35); 80% with HBCx-34 tumor (100 mg/kg BID p.o., Day 35); 80% in the experiment with HBCx-34 tumor (100 mg/kg QD p.o., Day 35). Further, the results for the “TGI (%) D42” value in the experiment on HBCx-22 tumor (30 mg/kg QD p.o.), in the experiment on HBCx-22 tumor (100 mg/kg BID p.o. (200 mg/kg/day)) and in the experiment with HBCx-22 tumor (100 mg/kg QD p.o.) were 58.6%, 110.4% and 97.3%, respectively. Besides, the “partial regressions (mice)” value in the experiment on HBCx-22 tumor (30 mg/kg once daily) is given as 1/10. Besides, the tumor stabilization entry in the experiment with HBCx-22 tumor (30 mg/kg once daily) and with HBCx-34 tumor (30 mg/kg once daily) was “tumor stabilization for all mice” throughout. The “partial tumor regression (mice)” value is 3/10 in the experiment on HBCx-22 tumor (100 mg/kg once daily), 6/10 with HBCx-22 tumor (setting [1]), 8/10 in the experiment with HBCx-34 tumor (100 mg/kg once daily) and 8/10 in the experiment with HBCx-34 tumor (setting [1]). Further, the “TGI (%) D35” value in the experiment on HBCx-34 tumor (30 mg/kg QD p.o., Day 35) is recorded as 77%; in the experiment with HBCx-34 tumor (100 mg/kg BID p.o. (200 mg/kg/day), Day 35), 106%; in the experiment on HBCx-34 tumor (100 mg/kg QD p.o., Day 35) it was 103%. Besides, the “partial regression (mice)” value with HBCx-34 tumor (30 mg/kg once daily) was 1/10.
For `C[C@H]1CN(c2cc(S(=O)(=O)NC3(C)CC3)cc3c2cnn3-c2nnc(C(F)F)s2)C[C@H](C)N1` [Compound A, 1-(5-(difluoromethyl)-1,3,4-thiadiazol-2-yl)-4-((3S,5S)-3,5-dimethylpiperazin-1-yl)-N-(1-methylcyclopropyl)-1H-indazole-6-sulfonamide], the “Regressions (%)” value amounted to 0% in the experiment on HBCx-22 tumor (3 mg/kg QD p.o.); 0% with HBCx-22 tumor (10 mg/kg QD p.o.); 50% in the experiment on HBCx-22 tumor (setting [2]); 62% in the experiment on HBCx-22 tumor (setting [3]); 100% in the experiment with HBCx-34 tumor (100 mg/kg QD p.o., Day 45). Also, the “TGI (%) D42” value with HBCx-22 tumor (3 mg/kg QD p.o.) is listed as 0.1%; in the experiment with HBCx-22 tumor (10 mg/kg QD p.o.), 31.8%; with HBCx-22 tumor (setting [2]), 83.4%; in the experiment with HBCx-22 tumor (setting [3]), 108.5%. The “tumor regression (mice)” value in the experiment with HBCx-22 tumor (Compound A study, 30 mpk) is reported as 4/8. In the experiment on HBCx-34 tumor (100 mg/kg QD p.o., Day 45), the “TGI (%) D45” value stood at 110%. The “partial regression (mice)” value with HBCx-34 tumor (Compound A study, 100 mg/kg) is reported as “all mice achieving partial regression”.

The record behind these values is patent publication US20260216174A1, “TREATMENT OF ER+ BREAST CANCER COMPRISING HOMOLOGOUS RECOMBINATION DEFICIENCY USING PARG INHIBITOR” (IDEAYA BIOSCIENCES, INC., priority 2023, published 2026).
